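All cell lines were grown in 96-well plates and treated with compound for 48 hours. At the GI50, growth is halved. TGI: total growth inhibition.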
Tests used:
Experiment in all cases: DTP human tumour cell line panel, 48 h
[1] = system: EKVX NSCLC
[2] = system: HCC-2998 colon
[3] = system: HOP-62 NSCLC
[4] = system: HT29 colon
[5] = system: MDA-MB-435
[6] = system: NCI-H460 lung
[7] = system: NCI-H522 lung
[8] = system: OVCAR-3 ovarian
[9] = system: ACHN renal
[10] = system: MOLT-4 leukemia

Row | Compound | GI50 [1] [µM] | TGI [1] [µM] | GI50 [2] [µM] | TGI [2] [µM] | GI50 [3] [µM] | TGI [3] [µM] | GI50 [4] [µM] | GI50 [5] [µM] | TGI [5] [µM] | GI50 [6] [µM] | TGI [6] [µM] | GI50 [7] [µM] | GI50 [8] [µM] | TGI [8] [µM] | GI50 [9] [µM] | TGI [9] [µM] | TGI [4] [µM] | GI50 [10] [µM] | TGI [10] [µM] | TGI [7] [µM]
1 | CC(C)=CCC/C(C)=C/[C@H]1OC(=O)CC12C[C@H](O)C=CC2=O (some centres not stated) | 2.21 | 5.24 | 0.221 | 0.448 | 0.856 | 2.43 | 0.469 | 0.458 | 1.64 | 0.692 | 2.21 | 1.19 | 0.455 | 0.848 |  |  |  |  |  | 
2 | CCC(=O)OC1=CN2C(=NC(c3ccc(N)cc3)=CC2c2cc(OC)c(OC)c(OC)c2)S1 (configuration not stated) |  |  | 4.47 | 15.7 | 4.79 | 15.1 | 3.82 | 2.98 | 14.1 | 2.61 | 8.52 | 3.49 | 2.47 | 5.56 | 3.35 | 18.2 | 14.2 | 3.89 | 64.7 | 12.6
3 | CNC(C)Cc1ccc(O)cc1 (configuration not stated) |  | > 100 |  | > 100 |  | > 100 |  |  |  |  | > 100 |  |  | > 100 |  | > 100 | > 100 |  | > 100 | > 100
4 | CC(=O)OCC(OC(C)=O)C(OC(C)=O)C(OC(C)=O)C(=O)CNn1c(-c2ccccc2Cl)nc2ccc(Br)cc2c1=O (configuration not stated) |  | > 100 |  |  |  | > 100 |  |  |  |  | > 100 |  |  | > 100 |  | > 100 | > 100 |  | > 100 | > 100
5 | CC(=O)O[C@H](C[C@H](C(C)C)N(C)C(=O)[C@@H](NC(=O)[C@H]1CCCCN1C)C(C)(C)C)c1nc(C(=O)N[C@@H](Cc2ccccc2)C[C@H](C)C(=O)O)cs1 | 0.00462 | > 25 | < 0.0025 | > 8.5 | < 0.0025 | > 25 | < 0.0025 |  |  | < 0.0025 | > 25 | < 0.0025 | < 0.0025 | 0.00448 | < 0.0025 | > 25 | > 25 | < 0.0025 | > 25 | 0.00847
6 | [N-]=[N+]=Nc1c(Br)c(=O)[nH]c(=O)n1COCCO |  |  |  | > 100 |  | > 100 |  |  |  |  | > 100 |  |  | > 100 |  | > 100 | > 100 |  | > 100 | > 100
7 | COc1cc(C(=O)C/C(CCC(=O)Nc2ccc(Cl)cc2Cl)=N/Nc2nnc(C)n2N)ccc1O |  | > 100 |  | > 100 |  | > 100 |  |  |  |  | > 100 |  |  | > 100 |  | > 100 | > 100 |  |  | > 100
8 | COC(=O)C1=C(c2cc(OC)c(OC)c(OC)c2)O[C@H](c2ccc3c(c2)OCO3)[C@H]1COC(C)=O |  | > 100 |  | > 100 |  | > 100 |  |  |  |  | > 100 |  |  | > 100 |  | 92.1 | 95.7 |  | 74 | 
9 | O=C(O)Cc1cc(=O)[nH]c2c1C(=O)CCC2 |  | > 100 |  | > 100 |  |  |  |  |  |  | > 100 |  |  | > 100 |  | > 100 | > 100 |  | > 100 | > 100
10 | O=c1oc2cc(OS(=O)(=O)c3ccccc3)ccc2c2c1CCCCC2 |  |  | 32.1 | > 100 | > 100 | > 100 | 2.84 | 9.44 | > 100 | 4.27 | > 100 | 6.44 |  |  | > 100 | > 100 | > 100 | 4.35 | > 100 | > 100
11 | COC(=O)/C(=N/O)C(C(=O)OC)C(=O)C(=O)Nc1c(Cl)cc(C)cc1S(=O)(=O)O (configuration not stated) |  | > 100 |  | > 100 |  | > 100 |  |  |  |  | > 100 |  |  | > 100 |  | > 100 | > 100 |  | > 100 | > 100
12 | O=C(O)c1oc2cccc3c2c1CCC3 |  | > 100 |  | > 100 |  | > 100 |  |  |  |  | > 100 |  |  | > 100 |  | > 100 | > 100 |  | > 100 | > 100
13 | COc1cc(CC2CC(c3ccc4c(c3)OCO4)OC2=O)cc(OC)c1OC (configuration not stated) |  | > 100 |  | > 100 |  | > 100 |  |  | > 100 |  | > 100 |  |  | > 100 |  | > 100 | > 100 |  | > 100 | 
14 | CCCCN(CCCC)C(=O)C(=O)CC(=O)/C=C/c1ccccc1 |  | > 100 |  | > 100 |  | > 100 |  |  |  |  | > 100 |  |  | > 100 |  | > 100 | > 100 |  | > 100 | > 100
15 | COC(=O)c1nn(C(=N)c2ccc(Cl)cc2)c2c1CCCCC2 |  |  |  | > 100 |  | > 100 |  |  |  |  | > 100 |  |  |  |  | > 100 | > 100 |  | > 100 | > 100
16 | Cc1ccc(S(=O)(=O)c2ccsc2N)cc1 |  |  | > 100 | > 100 | > 100 | > 100 | > 100 | > 100 | > 100 | > 100 | > 100 | > 100 | 56.1 | > 100 | > 100 | > 100 | > 100 | > 100 | > 100 | > 100
17 | N[C@H](C(=O)O)[C@@H](Cl)CC(=O)O |  | > 100 |  | > 100 |  | > 100 |  |  |  |  | > 100 |  |  | > 100 |  | > 100 | > 100 |  | > 100 | > 100
18 | CCOC(=O)NC(=O)c1cn(C2OC(CO)C(O)C2O)c(=O)[nH]c1=O (configuration not stated) |  | > 100 |  | > 100 |  | > 100 |  |  |  |  | > 100 |  |  | > 100 |  | > 100 | > 100 |  | > 100 | > 100
19 | CC1(C)N=C(N)N=C(N)N1c1ccc(OCCCCNC(=O)c2ccc(S(=O)(=O)F)cc2)c(Cl)c1 |  |  | 35 | > 100 | 68.3 | > 100 | 4.19 | 4.87 | > 100 | 2.1 | > 100 | 10.5 | 50.4 | > 100 | 41.6 | > 100 | > 100 | 21.3 | > 100 | > 100
